Test: xn = mol fraction of the nth substance listed
Details: 100 kPa, Liquid; for mass density: Vibrating tube method; for viscosity: Falling or rolling sphere viscometry

CCCCCCCCCCC [undecane] + CCCCCO
Details | mass density, 323.15 K [kg/m3] | mass density, 328.15 K [kg/m3] | mass density, 333.15 K [kg/m3] | mass density, 338.15 K [kg/m3] | mass density, 343.15 K [kg/m3] | viscosity, 328.15 K [mPa·s] | viscosity, 333.15 K [mPa·s] | viscosity, 338.15 K [mPa·s] | viscosity, 343.15 K [mPa·s]
x1 = 0.0999 | 778.15 | 774.23 | 770.26 | 766.24 | 762.15 | 1.336 | 1.2 | 1.082 | 0.979
x1 = 0.2 | 766.37 | 762.42 | 758.42 | 754.37 | 750.25 | 1.142 | 1.035 | 0.94 | 0.857
x1 = 0.3026 | 756.27 | 752.3 | 748.29 | 744.23 | 740.12 | 0.989 | 0.903 | 0.827 | 0.76
x1 = 0.4001 | 748.09 | 744.13 | 740.12 | 736.07 | 731.98 | 0.895 | 0.825 | 0.763 | 0.708
x1 = 0.5022 | 740.84 | 736.88 | 732.89 | 728.86 | 724.77 | 0.828 | 0.767 | 0.714 | 0.666
x1 = 0.5976 | 734.98 | 731.04 | 727.07 | 723.06 | – | 0.776 | 0.723 | 0.675 | 0.633
x1 = 0.6984 | 729.62 | 725.7 | 721.76 | 717.77 | – | 0.742 | 0.694 | 0.652 | 0.613
x1 = 0.801 | 724.97 | 721.07 | 717.15 | 713.2 | – | 0.714 | 0.67 | 0.63 | 0.594
x1 = 0.8822 | 721.69 | 717.84 | 713.96 | 710.06 | – | 0.702 | 0.659 | 0.621 | 0.587
x1 = 1 | 718.11 | 714.39 | 710.68 | 706.95 | – | 0.692 | 0.651 | 0.615 | 0.58

— the NIST ThermoML archive (doi:10.1021/acs.jced.6b00121)
